{"source": "patent US20240092784A1", "about": "“CONDENSED HETEROCYCLIC COMPOUND” (NISSAN CHEMICAL CORPORATION, priority 2020, published 2024)", "note": "pIC50: −log10 of the molar value.", "data": [{"molecular_target": "human SPR (Homo sapiens (Human), UniProt P35270)", "sequence (P35270 whole entry)": "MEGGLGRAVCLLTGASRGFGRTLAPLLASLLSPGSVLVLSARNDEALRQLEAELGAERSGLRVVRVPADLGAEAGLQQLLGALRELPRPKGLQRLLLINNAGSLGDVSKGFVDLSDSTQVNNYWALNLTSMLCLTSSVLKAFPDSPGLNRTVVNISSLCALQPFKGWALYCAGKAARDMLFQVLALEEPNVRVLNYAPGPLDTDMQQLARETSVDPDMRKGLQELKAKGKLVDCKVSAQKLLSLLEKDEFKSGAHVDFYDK", "assay": "Evaluation Example 2: Measurement of human SPR inhibitory activity (seven concentrations, sepiapterin absorbance at 420 nm)", "assay_type": "biochemical", "conditions": "Evaluation Example 2, seven concentrations 0.14 nM to 100 nM, 240 minutes at room temperature, read-out: IC50", "how_it_was_run": "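Reactions ran 240 min at room temperature in 100 mM Tris-HCl pH 7.5 with 0.01% BSA. They contained tag-cleaved, E. coli-expressed full-length human SPR (diluted to 150 ng/mL), seven compound concentrations from 0.14 to 100 nM, and sepiapterin/NADPH added as a 120 μM/160 μM solution. Inhibition was calculated from sepiapterin absorbance at 420 nm.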", "values": [{"compound": "CC(C)(C)Cn1c(=O)c(C(=O)NCC(F)(F)F)c(O)n2nc(Br)cc12", "note": "[Synthesis Example 272, 2-Bromo-7-hydroxy-4-neopentyl-5-oxo-N-(2,2,2-trifluoroethyl)-4,5-dihydropyrazolo[1,5-a]pyrimidine-6-carboxamide]", "pIC50": 8.42}, {"compound": "CC(C)Cn1c(=O)c(C(=O)NCC(F)(F)F)c(O)n2nc(Br)cc12", "note": "[Synthesis Example 273, 2-Bromo-7-hydroxy-4-isobutyl-5-oxo-N-(2,2,2-trifluoroethyl)-4,5-dihydropyrazolo[1,5-a]pyrimidine-6-carboxamide]", "pIC50": 7.93}, {"compound": "CC(C)(C)Cn1c(=O)c(C(=O)NC2CC2)c(O)n2nc(CN3CCCCC3)cc12", "note": "[Synthesis Example 274, N-Cyclopropyl-7-hydroxy-4-neopentyl-5-oxo-2-(piperidin-1-ylmethyl)-4,5-dihydropyrazolo[1,5-a]pyrimidine-6-carboxamide]", "pIC50": 8.02}, {"compound": "COC(C)(C)Cn1c(=O)c(C(=O)NC2CC2)c(O)n2nc(C(N)=O)cc12", "note": "[Synthesis Example 275, N6-Cyclopropyl-7-hydroxy-4-(2-methoxy-2-methylpropyl)-5-oxo-4,5-dihydropyrazolo[1,5-a]pyrimidine-2,6-dicarboxamide]", "pIC50": 9.17}, {"compound": "NC(=O)c1cc2n(CC3CCC(F)(F)CC3)c(=O)c(C(=O)NC3CC3)c(O)n2n1", "note": "[Synthesis Example 276, N6-Cyclopropyl-4-((4,4-difluorocyclohexyl)methyl)-7-hydroxy-5-oxo-4,5-dihydropyrazolo[1,5-a]pyrimidine-2,6-dicarboxamide]", "pIC50": 9.17}, {"compound": "CC(C)(Cn1c(=O)c(C(=O)NC2CC2)c(O)n2nc(C(N)=O)cc12)C(F)(F)F", "note": "[Synthesis Example 277, N6-Cyclopropyl-7-hydroxy-5-oxo-4-(3,3,3-trifluoro-2,2-dimethylpropyl)-4,5-dihydropyrazolo[1,5-a]pyrimidine-2,6-dicarboxamide]", "pIC50": 9.09}, {"compound": "CC(C)(C)Cn1c(=O)c(C(=O)NC2CC2)c(O)n2nc(C(C)(C)O)cc12", "note": "[Synthesis Example 278, N-Cyclopropyl-7-hydroxy-2-(2-hydroxypropan-2-yl)-4-neopentyl-5-oxo-4,5-dihydropyrazolo[1,5-a]pyrimidine-6-carboxamide]", "pIC50": 8.73}, {"compound": "CC(C)(C)Cn1c(=O)c(C(=O)NC2CC2)c(O)n2nc(C#N)cc12", "note": "[Synthesis Example 279, 2-Cyano-N-cyclopropyl-7-hydroxy-4-neopentyl-5-oxo-4,5-dihydropyrazolo[1,5-a]pyrimidine-6-carboxamide]", "pIC50": 8.75}, {"compound": "COc1ncccc1-c1cc2n(CC(C)(C)C)c(=O)c(C(=O)NC3CC3)c(O)n2n1", "note": "[Synthesis Example 281, N-Cyclopropyl-7-hydroxy-2-(2-methoxypyridine-3-yl)-4-neopentyl-5-oxo-4,5-dihydropyrazolo[1,5-a]pyrimidine-6-carboxamide]", "pIC50": 8.51}, {"compound": "COc1ccncc1-c1cc2n(CC(C)(C)C)c(=O)c(C(=O)NC3CC3)c(O)n2n1", "note": "[Synthesis Example 282, N-Cyclopropyl-7-hydroxy-2-(4-methoxypyridine-3-yl)-4-neopentyl-5-oxo-4,5-dihydropyrazolo[1,5-a]pyrimidine-6-carboxamide]", "pIC50": 8.33}, {"compound": "CC(C)(C)Cn1c(=O)c(C(=O)NC2CC2)c(O)n2nc(-c3cccnc3F)cc12", "note": "[Synthesis Example 283, N-Cyclopropyl-2-(2-fluoropyridine-3-yl)-7-hydroxy-4-neopentyl-5-oxo-4,5-dihydropyrazolo[1,5-a]pyrimidine-6-carboxamide]", "pIC50": 8.63}, {"compound": "CC(C)(C)Cn1c(=O)c(C(=O)NC2CC2)c(O)n2nc(-c3cccnc3C(F)(F)F)cc12", "note": "[Synthesis Example 284, N-Cyclopropyl-7-hydroxy-4-neopentyl-5-oxo-2-(2-(trifluoromethyl)pyridin-3-yl)-4,5-dihydropyrazolo[1,5-a]pyrimidine-6-carboxamide]", "pIC50": 8.41}]}]}
